Assay results from patent publication US12419878B2, “Sustained release local anesthetic hydrogel composition” (THE GOVERNING COUNCIL OF THE UNIVERSITY OF TORONTO, priority 2019, dated 2025).
Counter-ions that a name gives are not always drawn.

Test: Plasma pharmacokinetics of ropivacaine in sciatic nerve blockade model
Assay type: in vivo, Sprague-Dawley rats
From the text: Male Sprague-Dawley rats, approximately 400-500 g in weight, were anesthetized with 3-5% isoflurane and maintained as required. The left hind leg was shaved, cleaned twice with iodine and 70% ethanol, and a sterile drape placed over the animal to create a sterile field. An incision was made in the skin and the sciatic nerve exposed using a blunt dissection. The treatment was applied, the muscle and incision closed with sutures, and animals allowed to recover under a heat lamp. Controls were injected with vehicle only (i.e. HAMC) or ropivacaine in solution.
Blood samples were taken from the tail veins and quantified using mass-spectrometry. All extractions and mass-spectrometry was carried out by the Analytical Facility for Bioactive Molecules (The Hospital for Sick Children, Toronto, Canada).
To gain insight into the pharmacokinetics of ropivacaine released from HAMC, the sciatic nerve block procedure was performed as described. Animals were treated with ropivacaine-loaded 1.4:3 HAMC at doses of 30, 60, 90 or 120 mg/kg of particulate ropivacaine (<100 μm). Control animals received HAMC alone or ropivacaine in solution at 24 mg/kg. Each animal received approximately 400 μL of treatment. For the HAMC groups, blood was sampled by tail vein puncture at 2 h, 4 h, 6 h, 12 h, 20 h, 30 h, 48 h and 72 h. […]
All statistical analyses were performed using GraphPad Prism (GraphPad Software 6, San Diego, CA, USA). Differences among 4 groups were assessed by one-way ANOVA followed by either Dunnett's or Tukey's multiple comparisons test to identify statistical significance. […] The area under the curve (AUC) was calculated for each HAMC-ropivacaine pharmacokinetic profile, and the subsequent AUC vs HAMC-ropivacaine relationship was fit to a linear regression.
A pharmacokinetics study was performed to evaluate the systemic plasma distribution of ropivacaine when delivered either from HAMC or as bolus liquid solution. […] Blood was sampled by tail vein puncture over time, and the amount of ropivacaine was quantified by LC-MS/MS.

[1] = Sprague-Dawley, rat, plasma, 24 mg/kg at left sciatic nerve, male rats

plasma levels (24 mg/kg, by 24 h): negligible plasma levels | Cmax [1]: 1000 ng/mL | Tmax [1]: 1 h
SMILES: CCCN1CCCC[C@H]1C(=O)Nc1c(C)cccc1C [ropivacaine solution, ropivacaine·HCl]
